Measured values from US11872262B2, “Means and methods for treating bacterial infections” (VIB VZW, priority 2017, dated 2024).
In brackets after ≈: the same amount, converted by molar mass. Residues, ends and D or L forms follow the SMILES beside them.

Legend:
[1] = tested on: E coli ATCC 25922; assay type: cell-based, Escherichia coli
Experimental: (§1) Gram negative bacterial strains were cultivated in Luria-Bertani (LB) broth (Difco) and gram positive bacteria strains were grown in a rich medium, brain heart infusion (BHI) broth (Difco, Sparks, MD) at 37° C. Whenever required, growth media were supplemented with appropriate antibiotic to the medium or plates. Escherichia coli DH5α was used for cloning and plasmid amplification. […] Bacterial CFU counting was done on blood agar plates (BD Biosciences). Species identification and antibiograms for all clinical isolates were performed using MALDI-TOF and VITEK® 2 automated system (bioMérieux).
The MICs of active peptides were determined via the Broth microdilution assay according to the EUCAST guideline, which were performed in 96-well polystyrene flat-bottom microtiter plates (BD Biosciences). Briefly, a single colony was inoculated into 5 mL LB medium and grown to the end-exponential growth phase in a shaking incubator at 37° C. Cultures were subsequently diluted to an OD600 of 0.002 ([…]) in fresh LB medium. 100 μL of LB medium with different concentration of peptides ranging from 100 μg/mL to 1 μg/mL were serially diluted to the sterile 96-well plate (at least 3 wells in each plate). […] A multipurpose UV/VIS plate reader at OD590 nm, 1 s shaking measured the absorbance of the growth bacteria using a Perkin Elmer spectrophotometer (1420 Multilabel Counter Victor 3).

[2] = tested on: Proteus mirabilis; assay type: cell-based
Experimental: as §1
(§2) The MICs of active peptides were determined via the Broth microdilution assay according to the EUCAST guideline, which were performed in 96-well polystyrene flat-bottom microtiter plates (BD Biosciences). Briefly, a single colony was inoculated into 5 mL LB medium and grown to the end-exponential growth phase in a shaking incubator at 37° C. Cultures were subsequently diluted to an OD600 of 0.002 ([…]) in fresh LB medium. 100 μL of LB medium with different concentration of peptides ranging from 100 μg/mL to 1 μg/mL were serially diluted to the sterile 96-well plate (at least 3 wells in each plate). Afterward, 100 μL of the diluted bacteria were pipetted into 96-well plates containing different concentration of peptides. In each plate, the grown bacteria with maximum concentration of carrier and medium were considered as positive and negative controls, respectively. Thereafter, 96-well plates was statically incubated overnight at 37° C. to allow bacterial growth. A multipurpose UV/VIS plate reader at OD590 nm, 1 s shaking measured the absorbance of the growth bacteria using a Perkin Elmer spectrophotometer (1420 Multilabel Counter Victor 3).

[3] = tested on: Staphylococcus epidermidis 12228; assay type: cell-based
Experimental: as §1, §2

[4] = tested on: Neisseria; assay type: cell-based
Experimental: as §1, §2

[5] = tested on: Enterobacter cloacae LMG2783T; assay type: cell-based
Experimental: as §1, §2

[6] = tested on: Staphylococcus aureus MRSA326; assay type: cell-based
Experimental: as §1, §2

[7] = tested on: Acinetobacter baumanii; assay type: cell-based
Experimental: as §1, §2

[8] = tested on: Pseudomonas aeruginosa; assay type: cell-based
Experimental: as §1, §2

[9] = tested on: Acinetobacter radioresistens; assay type: cell-based
Experimental: as §1, §2

[10] = tested on: Klebsiella pneumoniae (ATCC 1388); assay type: cell-based
Experimental: as §1, §2

Q: Which MIC [1] does the source give for CC(C)C[C@H](NC(=O)CNC(=O)[C@H](CCCNC(=N)N)NC(=O)[C@@H]1CCCN1C(=O)[C@H](CCCNC(=N)N)NC(=O)[C@H](CCCNC(=N)N)NC(=O)[C@@H](NC(=O)[C@H](CC(C)C)NC(=O)[C@H](C)NC(=O)[C@H](CC(C)C)NC(=O)CNC(=O)[C@H](CC(C)C)NC(=O)CNC(=O)[C@@H](N)CCCNC(=N)N)C(C)C)C(=O)NCC(=O)N[C@@H](CC(C)C)C(=O)N[C@@H](C)C(=O)N[C@@H](CC(C)C)C(=O)N[C@H](C(=O)N[C@@H](CCCNC(=N)N)C(=O)N[C@@H](CCCNC(=N)N)C(=O)O)C(C)C [Peptide P2] (H-RGLGLALVRRPRGLGLALVRR-OH) here?
A: 12 µg/mL (≈ 5.22 µM)

Q: And the MIC [2]?
A: 50 µg/mL (≈ 21.7 µM)

Q: What about the MIC [3] of the same compound?
A: 50 µg/mL (≈ 21.7 µM)

Q: What about the MIC [4] of the same compound?
A: 50 µg/mL (≈ 21.7 µM)

Q: What about the MIC [5] of the same compound?
A: 50 µg/mL (≈ 21.7 µM)

Q: And the MIC [6]?
A: 200 µg/mL (≈ 87 µM)

Q: What about the MIC [7] of the same compound?
A: 6 µg/mL (≈ 2.61 µM)

Q: And the MIC [8]?
A: 200 µg/mL (≈ 87 µM)

Q: What about the MIC [9] of the same compound?
A: 5 µg/mL (≈ 2.17 µM)

Q: And the MIC [10]?
A: 50 µg/mL (≈ 21.7 µM)
